Laboratory results: PMC10218498, “Exploring BenzylethoxyAryl Urea Scaffolds for Multitarget Immunomodulation Therapies” (International Journal of Molecular Sciences, 2023)

Legend:
[1] = test system: HT-29 (colon adenocarcinoma); test: MTT cell proliferation assay, HT-29; assay type: cell-based, human; settings: for IC50: Homo sapiens, HT-29, 48 h of treatment, read-out: IC50 HT-29; for IC50 / effect on cancer cell proliferation (HT-29), in words: MTT
Procedure: (§1) The 3-(4,5-dimethylthiazol-2-yl)-2,5-diphenyltetrazolium bromide (MTT; Sigma Chemical Co.) dye reduction assay in 96-well microplates was used. […] After that, the supernatant was discarded and replaced by 100 µL of DMSO to dissolve formazan crystals. The absorbance was then read at 550 nm by spectrophotometry. For all concentrations of compound, cell viability was expressed as the percentage of the ratio between the mean absorbance of treated cells and the mean absorbance of untreated cells. Three independent experiments were performed, and the IC50 values (i.e., concentration half inhibiting cell proliferation) were graphically determined using GraphPad Prism 4 software.

[2] = test system: A-549 (pulmonary adenocarcinoma); test: MTT cell proliferation assay, A-549; assay type: cell-based, human; settings: for IC50: Homo sapiens, A549, 48 h of treatment, read-out: IC50 A-549; for IC50 / effect on cancer cell proliferation (A-549), in words: MTT
Procedure: as §1

[3] = test system: HEK-293 (human embryonic kidney cells); test: MTT cell proliferation assay, HEK-293; assay type: cell-based; settings: HEK293, 48 h of treatment
Procedure: (§2) This assay allowed us to establish the corresponding IC50 values (expressed as the concentration, in μM, at which 50% of cell viability is achieved), shown in Table 1.
(§3) In 96-well plates, 5 × 10^3 (HT-29, MCF-7, A549, HMEC-1, Jurkat, and HEK-293) cells per well were incubated with serial dilutions of the tested compounds in a total volume of 100 μL of their respective growth media. The 3-(4,5-dimethylthiazol-2-yl)-2,5-diphenyltetrazolium bromide (MTT; Sigma Chemical Co.) dye reduction assay in 96-well microplates was used. After 2 days of incubation (37 °C, 5% CO2 in a humid atmosphere), 10 μL of MTT (5 mg/mL in phosphate-buffered saline, PBS) was added to each well, and the plate was incubated for a further 3 h (37 °C). After that, the supernatant was discarded and replaced by 100 µL of DMSO to dissolve formazan crystals. The absorbance was then read at 550 nm by spectrophotometry. For all concentrations of compound, cell viability was expressed as the percentage of the ratio between the mean absorbance of treated cells and the mean absorbance of untreated cells. Three independent experiments were performed, and the IC50 values (i.e., concentration half inhibiting cell proliferation) were graphically determined using GraphPad Prism 4 software.

Jurkat T cells = test: MTT cell proliferation assay, Jurkat T cells; assay type: cell-based; settings: Homo sapiens, 48 h of treatment
Procedure: as §2, §3

[4] = test system: human microvessel endothelial cells (HMEC-1); test: MTT cell proliferation assay, HMEC-1; assay type: cell-based; settings: 48 h of treatment
Procedure: as §2, §3

LCK = test: Immunoblotting of OT-1 CTL signaling proteins: LCK; assay type: cell-based, mice; settings: OT-1, 20 μM, 24 h
Excerpt: (§4) We next studied the effect of our compounds on the signaling cascade downstream of the TCR. […] However, both the expression and phosphorylation of LCK were increased in response to all compounds. The effects on ZAP70 and LAT were more complex, with opposing effects on total protein expression versus phosphorylation. Thus, all compounds modulated signaling downstream of the TCR in a manner that is likely to impact T-cell activation and activity.
(§5) CD8+ cells were obtained from the inguinal, axillary, brachial, and mesenteric lymph nodes previously collected from OT-1 mice. Lymph node cells were isolated by mashing through a […] cell strainer. Cells were resuspended in IMDM cell media at a concentration of 0.3 million cells/mL. N4 ovalbumin peptide was added at a concentration of 10 nM, and cells were incubated for 48 h at 5% CO2, 37 °C. On day 2 from recollection, cells were pelleted at 1300 rpm for 5 min and washed with PBS to remove N4 peptide. The cell pellet was resuspended in fresh IMDM media in a new flask in a 0.3 million cells/mL and supplemented with IL-2 at 20 ng/mL. After incubation for a further 48 h (day 4), cells were re-seeded in fresh IMDM media at a concentration of 0.3 million cells/mL supplemented with IL-2 at 20 ng/mL. Cells were cultured for a further 48 h prior to use on day 6 in functional assays.
(§6) To study the effect of the compounds in the signaling pathway of CTLs, the compound was incubated for 24 h at 20 μM. After this time, cells were collected and washed twice in PBS and lysed in radioimmunoprecipitation assay (RIPA) lysis buffer (50 mM tris-HCl at pH 7.4, 150 mM sodium chloride, 5 mM EGTA, 0.1% SDS, 1% NP-40, and 1% deoxycholate) supplemented with a protease and phosphatase inhibitor cocktail (mini complete ULTRA Protease tablet and phosSTOP tablet from Roche, Basel, Switzerland). Lysates were clarified by high-speed centrifugation (17,000 rpm for 15 min at 4 °C). Protein concentration was measured using a Micro BCA Protein Assay (Thermo Scientific, Waltham, MA, USA), and 10 μg to 30 μg of total protein were supplemented with 2X SDS sample buffer [tris (pH 6.8), 20% glycerol, 5% SDS, b-mercaptoethanol, and bromophenol blue) and boiled at 95 °C for 5 min. […] Bound Ab was detected by incubation with anti-rabbit and anti-mouse horseradish peroxidase secondary Ab (Cell Signaling Technology) and visualized using the Bio-Rad ChemiDoc MP Imaging System.

Fyn = test: Immunoblotting of OT-1 CTL signaling proteins: FYN; assay type: cell-based, mice; settings: OT-1, 20 μM, 24 h
Excerpt: as §4, §5, §6

[5] = test system: MCF-7 (Human breast cancer adenocarcinoma); test: MTT cell proliferation assay, MCF-7; assay type: cell-based; settings: Homo sapiens, MCF7; MTT; read-out: IC50 (μM) MCF-7
Procedure: as §1

[6] = test system: HMEC-1 microtube formation; test: Tube formation inhibition assay on Matrigel; assay type: cell-based, human; settings: HMEC-1 on Matrigel, 24 h
Procedure: The capacity to inhibit the formation of a new vasculature network formed by HMEC-1 was evaluated on compounds 8 and 14 at different concentrations.
Wells of an IBIDI μ-slide angiogenesis (IBIDI, Martinsried, Germany) were coated with 15 μL of Matrigel® (10 mg/mL, BD Biosciences) at 4 °C. After gelatinization at 37 °C for 30 min, HMEC-1 cells were seeded at 2 × 10^4 cells/well in 25 μL of culture medium on top of the Matrigel and were incubated 30 min at 37 °C while are attached. Then, compounds were added and dissolved in 25 μL of culture medium, and after 24 h of incubation at 37 °C, tube formation was evaluated.

PD-L1 [7] = target: T1, PD-L1 (Homo sapiens, UniProt Q9NZQ7); test: PD-L1 relative quantification by flow cytometry in HT-29; assay type: cell-based; parameters: endogenous in cells; host or cells: HT-29; settings: HT-29, 20 µM, 24 h, relative to DMSO control = 100
Procedure: (§7) To assess the effect of the selected compounds on the biological targets PD-L1 and VEFGR-2, we performed the study on both cancer cell lines HT-29 and A-549 and by flow cytometry technique. […] For these assays, cells were incubated for 24 h in the presence of the corresponding compounds at 20 µM concentration.
(§8) To study the effect of the compounds on every biological target in cancer cell lines, the compounds were used at 20 µM dose.
(§9) For the assay, 10^5 cells per well were incubated for 24 h with the corresponding dose of the tested compound in a total volume of 500 μL of their growth media.
(§10) On the one hand, to detect total PD-L1 and VEGFR-2, after the cell treatments, they were collected and fixed with 4% in PBS paraformaldehyde. After fixation, a treatment with 0.5% in PBS TritonTM X-100 was performed, and finally, cells were stained with FITC Mouse monoclonal Anti-Human VEGFR-2 (ab184903) and Alexa Fluor® 647 Rabbit monoclonal Anti-PD-L1 (ab215251).
(§11) On the other hand, to detect membrane PD-L1 and VEGFR-2, the process was the same, avoiding the treatment with 0.5% in PBS TritonTM X-100 step.

PD-L1 [8] = target: T1, PD-L1; test: PD-L1 relative quantification by flow cytometry in A-549; assay type: cell-based; parameters: endogenous in cells; host or cells: A-549; settings: A-549, 20 µM, 24 h, relative to DMSO control = 100
Procedure: as §7, §8, §9, §10, §11

PD-L1 [9] = target: T1, PD-L1; test: PD-L1 relative quantification by flow cytometry in MCF-7; assay type: cell-based; parameters: endogenous in cells; host or cells: MCF-7; settings: MCF-7, 20 µM, 24 h, control = 100
Procedure: In view of the good results obtained for these selected compounds, we decided to extend the study to a third cancer cell line, MCF-7 (Human breast cancer adenocarcinoma). First, we determined the IC50 values of the derivatives and their SI indexes (see Table 4). Then, we determined the effect of the selected compounds on the biological targets, PD-L1 and VEGFR-2, by flow cytometry. […] As usually, the assay was performed at a concentration of 20 µM for 24 h.
as §8, §9, §10, §11

T1 sequence (Q9NZQ7 19-290): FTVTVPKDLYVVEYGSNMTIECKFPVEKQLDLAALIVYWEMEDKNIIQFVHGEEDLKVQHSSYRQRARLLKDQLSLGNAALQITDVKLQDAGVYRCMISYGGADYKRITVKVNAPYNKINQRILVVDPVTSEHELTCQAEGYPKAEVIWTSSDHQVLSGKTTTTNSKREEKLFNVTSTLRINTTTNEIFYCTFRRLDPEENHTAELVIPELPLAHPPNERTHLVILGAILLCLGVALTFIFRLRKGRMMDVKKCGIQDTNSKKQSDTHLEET

| SMILES | IC50 [1] | IC50 [2] | IC50 [3] | IC50 (Jurkat T cells) | IC50 [4] | effect on cancer cell proliferation (HT-29), in words [1] | effect on cancer cell proliferation (A-549), in words [2] | melting point | other results |
| --- | --- | --- | --- | --- | --- | --- | --- | --- | --- |
| COc1ccc(COc2cccc(NC(=O)Nc3ccccc3)c2)cc1 [Compound 1] | 21 ± 10 µM | 6 ± 3 µM | 1.4 ± 0.2 µM | > 100 µM | > 100 µM | – | – | – | – |
| COc1ccc(COc2cccc(NC(=O)Nc3cccc(F)c3)c2)cc1 [Compound 3] | > 100 µM | > 100 µM | 3.7 ± 0.8 µM | > 100 µM | > 100 µM | no effect | no effect | 202 to 203 °C | – |
| COc1ccc(COc2cccc(NC(=O)Nc3ccccc3F)c2)cc1 [Compound 4] | > 100 µM | > 100 µM | 16 ± 4 µM | > 100 µM | > 100 µM | no effect | no effect | 185 to 186 °C | – |
| COc1ccc(COc2cccc(NC(=O)Nc3ccc(Cl)cc3)c2)cc1 [Compound 5] | 12 ± 4 µM | 15 ± 2 µM | > 100 µM | > 100 µM | > 100 µM | – | – | – | SI (HT-29) (IC50HEK293/IC50HT-29) ([1]; selectivity index): >8; SI (A-549) (IC50HEK293/A-549) ([2]; selectivity index): >7 |
| COc1ccc(COc2cccc(NC(=O)Nc3cccc(Cl)c3)c2)cc1 [Compound 6] | 38 ± 15 µM | > 100 µM | 3.3 ± 0.5 µM | > 100 µM | > 100 µM | only active in HT-29 | – | – | – |
| COc1ccc(COc2cccc(NC(=O)Nc3ccccc3Cl)c2)cc1 [Compound 7] | 50 ± 4 µM | 48 ± 3 µM | 27 ± 9 µM | > 100 µM | > 100 µM | – | – | 183.4 °C | – |
| COc1ccc(COc2cccc(NC(=O)Nc3cccc(Br)c3)c2)cc1 [Compound 9] | 25 ± 2 µM | 3.9 ± 0.4 µM | 0.7 ± 0.3 µM | > 100 µM | > 100 µM | – | – | 198.5 °C | LCK protein expression (Western blot quantification) (LCK): 180; pY394-LCK protein expression (Western blot quantification) (LCK): 175; pY505-LCK protein expression (Western blot quantification) (LCK): 154; FYN protein expression (Western blot quantification) (Fyn): 108 |
| COc1ccc(COc2cccc(NC(=O)Nc3ccccc3Br)c2)cc1 [Compound 10] | 41 ± 5 µM | 25 ± 1 µM | 8.7 ± 0.7 µM | > 100 µM | > 100 µM | – | – | 198.5 °C | – |
| COc1ccc(COc2cccc(NC(=O)Nc3cccc(OC)c3)c2)cc1 [Compound 12] | > 100 µM | > 100 µM | 12 ± 1 µM | > 100 µM | > 100 µM | no effect | no effect | 137.5 to 168.9 °C | – |
| COc1ccc(COc2cccc(NC(=O)Nc3ccccc3OC)c2)cc1 [Compound 13] | > 100 µM | > 100 µM | > 100 µM | > 100 µM | > 100 µM | no effect | no effect | 160 to 161.6 °C | – |
| CNC(=O)c1cc(Oc2ccc(NC(=O)Nc3ccc(Cl)c(C(F)(F)F)c3)cc2)ccn1 [Sorafenib, sorafenib, reference compound] | 17 ± 4 µM | 27 ± 2 µM | 5 ± 0.7 µM | – | 34 ± 3 µM | – | – | – | IC50 [5]: 14 ± 4 µM; Minimum Active Conc. (inhibition of microtube formation) [6]: 10 µM; Total PD-L1 (%) (PD-L1 [7]): 96 ± 49%; Total PD-L1 (%) (PD-L1 [8]): 102 ± 10%; % PD-L1 Memb. (PD-L1 [9]): 89 ± 2%; % PD-L1 Total (PD-L1 [9]): 80 ± 13% |
| CCN(CC)CCNC(=O)c1c(C)[nH]c(/C=C2\C(=O)Nc3ccc(F)cc32)c1C [Sunitinib, sunitinib, reference compound] | – | – | – | – | – | – | – | – | Minimum Active Conc. (inhibition of microtube formation) [6]: 3 µM |
